Tested on: incident cancers in post-myocardial infarction patients with hsCRP ≥2 mg/L
Assay: CANTOS trial: incident cancers, cancer mortality, canakinumab vs placebo
Type: in vivo, human

canakinumab: high-affinity, fully human monoclonal antibody of the IgG1/k to interleukin-1β; INN number 8836
Breast, incidence rate (number) (50 mg SC q 3 months): 0.09(7) per 100 person years | Central Nervous System, incidence rate (number) (50 mg SC q 3 months): 0.04(3) per 100 person years | Endocrine: Adrenal, incidence rate (number) (50 mg SC q 3 months): 0 per 100 person years | Endocrine: Thyroid, incidence rate (number) (50 mg SC q 3 months): 0.01(1) per 100 person years | Gastrointenstinal: Appendiceal, incidence rate (number) (50 mg SC q 3 months): 0 per 100 person years | Gastrointenstinal: Biliary, incidence rate (number) (50 mg SC q 3 months): 0.03(2) per 100 person years | Gastrointenstinal: Colorectal, incidence rate (number) (50 mg SC q 3 months): 0.25(20) per 100 person years | Gastrointenstinal: Esophageal, incidence rate (number) (50 mg SC q 3 months): 0.08(6) per 100 person years | Gastrointenstinal: Gastric, incidence rate (number) (50 mg SC q 3 months): 0.04(3) per 100 person years | Gastrointenstinal: Oral cavity/tongue, incidence rate (number) (50 mg SC q 3 months): 0.03(2) per 100 person years | Gastrointenstinal: Pancreatic, incidence rate (number) (50 mg SC q 3 months): 0.04(3) per 100 person years | Genitourinary: Bladder, incidence rate (number) (50 mg SC q 3 months): 0.10(8) per 100 person years | Genitourinary: Cervical, incidence rate (number) (50 mg SC q 3 months): 0 per 100 person years | Genitourinary: Endometrial/Uterine, incidence rate (number) (50 mg SC q 3 months): 0.03(2) per 100 person years | Genitourinary: Ovarian, incidence rate (number) (50 mg SC q 3 months): 0 per 100 person years | Genitourinary: Prostate, incidence rate (number) (50 mg SC q 3 months): 0.19(15) per 100 person years | Genitourinary: Testicular, incidence rate (number) (50 mg SC q 3 months): 0 per 100 person years | Hematopoetic: Leukemia, incidence rate (number) (50 mg SC q 3 months): 0.01(1) per 100 person years | Hematopoetic: Lymphoma, incidence rate (number) (50 mg SC q 3 months): 0.04(3) per 100 person years | Hematopoetic: Multiple myeloma, incidence rate (number) (50 mg SC q 3 months): 0 per 100 person years | Kidney, incidence rate (number) (50 mg SC q 3 months): 0.13(10) per 100 person years | Liver, incidence rate (number) (50 mg SC q 3 months): 0.04(3) per 100 person years | Lung Cancers: Adenocarcinoma or poorly differentiated large cell carcinoma or unspecified, incidence rate (number) (50 mg SC q 3 months): 0.33 per 100 person years | Lung Cancers: Pleural cancer, incidence rate (number) (50 mg SC q 3 months): 0 per 100 person years | Lung Cancers: Small cell lung cancer, incidence rate (number) (50 mg SC q 3 months): 0.01 (1) per 100 person years | Lung Cancers: Squamous cell lung carcinoma, incidence rate (number) (50 mg SC q 3 months): 0.01 (1) per 100 person years | Other cancer sites: Other, incidence rate (number) (50 mg SC q 3 months): 0.08(6) per 100 person years | Sarcoma / Bone, incidence rate (number) (50 mg SC q 3 months): 0.01(1) per 100 person years | Skin: Basal cell carcinoma, incidence rate (number) (50 mg SC q 3 months): 0.28(22) per 100 person years | Skin: Melanoma, incidence rate (number) (50 mg SC q 3 months): 0.08(6) per 100 person years | Skin: Other, incidence rate (number) (50 mg SC q 3 months): 0 per 100 person years | Skin: Squamous cell skin cancer, incidence rate (number) (50 mg SC q 3 months): 0.10(8) per 100 person years | Lung Cancers: Adenocarcinoma or poorly differentiated large cell carcinoma or unspecified, incidence rate (number) (50 mg SC q 3 months, listed as Canakinumab): 0.33 (26) per 100 person years | Breast, incidence rate (number) (150 mg SC q 3 months): 0.05(4) per 100 person years | Central Nervous System, incidence rate (number) (150 mg SC q 3 months): 0.05(4) per 100 person years | Endocrine: Adrenal, incidence rate (number) (150 mg SC q 3 months): 0.01(1) per 100 person years | Endocrine: Thyroid, incidence rate (number) (150 mg SC q 3 months): 0.02(2) per 100 person years | Gastrointenstinal: Appendiceal, incidence rate (number) (150 mg SC q 3 months): 0 per 100 person years | Gastrointenstinal: Biliary, incidence rate (number) (150 mg SC q 3 months): 0.03(3) per 100 person years | Gastrointenstinal: Colorectal, incidence rate (number) (150 mg SC q 3 months): 0.19(16) per 100 person years | Gastrointenstinal: Esophageal, incidence rate (number) (150 mg SC q 3 months): 0.03(3) per 100 person years | Gastrointenstinal: Gastric, incidence rate (number) (150 mg SC q 3 months): 0.02(2) per 100 person years | Gastrointenstinal: Oral cavity/tongue, incidence rate (number) (150 mg SC q 3 months): 0.05(4) per 100 person years | Gastrointenstinal: Pancreatic, incidence rate (number) (150 mg SC q 3 months): 0.06(5) per 100 person years | Genitourinary: Bladder, incidence rate (number) (150 mg SC q 3 months): 0.08(7) per 100 person years | Genitourinary: Cervical, incidence rate (number) (150 mg SC q 3 months): 0.01(1) per 100 person years | Genitourinary: Endometrial/Uterine, incidence rate (number) (150 mg SC q 3 months): 0 per 100 person years | Genitourinary: Ovarian, incidence rate (number) (150 mg SC q 3 months): 0.01(1) per 100 person years | Genitourinary: Prostate, incidence rate (number) (150 mg SC q 3 months): 0.16(14) per 100 person years | Genitourinary: Testicular, incidence rate (number) (150 mg SC q 3 months): 0.01(1) per 100 person years | Hematopoetic: Leukemia, incidence rate (number) (150 mg SC q 3 months): 0.02(2) per 100 person years | Hematopoetic: Lymphoma, incidence rate (number) (150 mg SC q 3 months): 0.05(4) per 100 person years | Hematopoetic: Multiple myeloma, incidence rate (number) (150 mg SC q 3 months): 0 per 100 person years | Kidney, incidence rate (number) (150 mg SC q 3 months): 0.07(6) per 100 person years | Liver, incidence rate (number) (150 mg SC q 3 months): 0.06(5) per 100 person years | Lung Cancers: Adenocarcinoma or poorly differentiated large cell carcinoma or unspecified, incidence rate (number) (150 mg SC q 3 months): 0.27 per 100 person years | Lung Cancers: Pleural cancer, incidence rate (number) (150 mg SC q 3 months): 0 per 100 person years | Lung Cancers: Small cell lung cancer, incidence rate (number) (150 mg SC q 3 months): 0.01 (1) per 100 person years | Lung Cancers: Squamous cell lung carcinoma, incidence rate (number) (150 mg SC q 3 months): 0.02 (2) per 100 person years | Other cancer sites: Other, incidence rate (number) (150 mg SC q 3 months): 0.06(5) per 100 person years | Sarcoma / Bone, incidence rate (number) (150 mg SC q 3 months): 0 per 100 person years | Skin: Basal cell carcinoma, incidence rate (number) (150 mg SC q 3 months): 0.29(25) per 100 person years | Skin: Melanoma, incidence rate (number) (150 mg SC q 3 months): 0.06(5) per 100 person years | Skin: Other, incidence rate (number) (150 mg SC q 3 months): 0.06(5) per 100 person years | Skin: Squamous cell skin cancer, incidence rate (number) (150 mg SC q 3 months): 0.15(13) per 100 person years | Lung Cancers: Adenocarcinoma or poorly differentiated large cell carcinoma or unspecified, incidence rate (number) (150 mg SC q 3 months, listed as Canakinumab): 0.27 (23) per 100 person years | Breast, incidence rate (number) (300 mg SC q 3 months): 0.06(5) per 100 person years | Central Nervous System, incidence rate (number) (300 mg SC q 3 months): 0.03(3) per 100 person years | Endocrine: Adrenal, incidence rate (number) (300 mg SC q 3 months): 0.01(1) per 100 person years | Endocrine: Thyroid, incidence rate (number) (300 mg SC q 3 months): 0.01(1) per 100 person years | Gastrointenstinal: Appendiceal, incidence rate (number) (300 mg SC q 3 months): 0.01(1) per 100 person years | Gastrointenstinal: Biliary, incidence rate (number) (300 mg SC q 3 months): 0 per 100 person years | Gastrointenstinal: Colorectal, incidence rate (number) (300 mg SC q 3 months): 0.21(18) per 100 person years | Gastrointenstinal: Esophageal, incidence rate (number) (300 mg SC q 3 months): 0.08(7) per 100 person years | Gastrointenstinal: Gastric, incidence rate (number) (300 mg SC q 3 months): 0.06(5) per 100 person years | Gastrointenstinal: Oral cavity/tongue, incidence rate (number) (300 mg SC q 3 months): 0.02(2) per 100 person years | Gastrointenstinal: Pancreatic, incidence rate (number) (300 mg SC q 3 months): 0.06(5) per 100 person years | Genitourinary: Bladder, incidence rate (number) (300 mg SC q 3 months): 0.13(11) per 100 person years | Genitourinary: Cervical, incidence rate (number) (300 mg SC q 3 months): 0 per 100 person years

From US20230220063A1, “IL-1BETA BINDING ANTIBODIES FOR USE IN TREATING CANCER” (NOVARTIS AG, priority 2017, published 2023)
